# According to ChEMBL document CHEMBL4229379, “Synthesis and structure-activity relationship of novel bisindole amidines active against MDR Gram-positive and Gram-negative bacteria” (Eur J Med Chem, 2018):
# What was measured:
# [1] = test system: Staphylococcus epidermidis; experiment: Antibacterial activity against methicillin-sensitive Staphylococcus epidermidis ATCC 12228 after 18 hrs by CLSI broth microdilution method; format: functional; conditions: ATCC 12228, 18 h
# [2] = test system: Staphylococcus epidermidis; experiment: Antibacterial activity against methicillin-resistant Staphylococcus epidermidis 12-8 after 18 hrs by CLSI broth microdilution method; format: functional; conditions: 12-8, 18 h
# Staphylococcus aureus [3] = experiment: Antibacterial activity against methicillin-sensitive Staphylococcus aureus ATCC 29213 after 18 hrs by CLSI broth microdilution method; format: functional; conditions: ATCC 29213, 18 h
# Staphylococcus aureus [4] = experiment: Antibacterial activity against methicillin-resistant Staphylococcus aureus 12-33 after 18 hrs by CLSI broth microdilution method; format: functional; conditions: 12-33, 18 h
# Enterococcus faecalis [5] = experiment: Antibacterial activity against vancomycin-sensitive Enterococcus faecalis ATCC 29212 after 18 hrs by CLSI broth microdilution method; format: functional; conditions: ATCC 29212, 18 h
# Enterococcus faecalis [6] = experiment: Antibacterial activity against vancomycin-resistant Enterococcus faecalis 09-9 after 18 hrs by CLSI broth microdilution method; format: functional; conditions: 09-9, 18 h
# Enterococcus faecium [7] = experiment: Antibacterial activity against vancomycin-resistant Enterococcus faecium ATCC 700221 after 18 hrs by CLSI broth microdilution method; format: functional; conditions: ATCC 700221, 18 h
# Enterococcus faecium [8] = experiment: Antibacterial activity against vancomycin-sensitive Enterococcus faecium 12-3 after 18 hrs by CLSI broth microdilution method; format: functional; conditions: 12-3, 18 h
# Escherichia coli [9] = experiment: Antibacterial activity against extended-spectrum beta-lactamase deficient Escherichia coli ATCC 25922 after 18 hrs by CLSI broth microdilution method; format: functional; conditions: ATCC 25922, 18 h
# Escherichia coli [10] = experiment: Antibacterial activity against extended-spectrum beta-lactamase harboring Escherichia coli 12-15 after 18 hrs by CLSI broth microdilution method; format: functional; conditions: 12-15, 18 h
# Klebsiella pneumoniae [11] = experiment: Antibacterial activity against extended-spectrum beta-lactamase harboring Klebsiella pneumoniae ATCC 700603 after 18 hrs by CLSI broth microdilution method; format: functional; conditions: Klebsiella pneumoniae, 700603, 18 h
# Klebsiella pneumoniae [12] = experiment: Antibacterial activity against new delhi metallo-beta-lactamase-1 harboring Klebsiella pneumoniae ATCC BAA-2146 after 18 hrs by CLSI broth microdilution method; format: functional; conditions: ATCC BAA-2146, 18 h
# Klebsiella pneumoniae [13] = experiment: Antibacterial activity against extended-spectrum beta-lactamase harboring Klebsiella pneumoniae 12-8 after 18 hrs by CLSI broth microdilution method; format: functional; conditions: 12-8, 18 h
# Pseudomonas aeruginosa [14] = experiment: Antibacterial activity against Pseudomonas aeruginosa ATCC 27853 after 18 hrs by CLSI broth microdilution method; format: functional; conditions: ATCC 27853, 18 h
# [15] = test system: Acinetobacter calcoaceticus; experiment: Antibacterial activity against Acinetobacter calcoaceticus ATCC 19606 after 18 hrs by CLSI broth microdilution method; format: functional; conditions: ATCC 19606, 18 h
# Enterobacter cloacae = experiment: Antibacterial activity against Enterobacter cloacae ATCC 43560 after 18 hrs by CLSI broth microdilution method; format: functional; conditions: ATCC 43560, 18 h
# Proteus mirabilis = experiment: Antibacterial activity against Proteus mirabilis 12-6 after 18 hrs by CLSI broth microdilution method; format: functional; conditions: 12-6, 18 h
# [16] = Cytotoxicity against HEK293T cells assessed as reduction in cell viability after 48 hrs by MTS assay; format: cell-based, HEK-293T; conditions: human
# [17] = test system: Staphylococcus epidermidis; experiment: Antibacterial activity against methicillin-sensitive Staphylococcus epidermidis 12-6 after 18 hrs by CLSI broth microdilution method; format: functional; conditions: 12-6, 18 h
# Staphylococcus aureus [18] = experiment: Antibacterial activity against methicillin-resistant Staphylococcus aureus ATCC 33591 after 18 hrs by CLSI broth microdilution method; format: functional; conditions: ATCC 33591, 18 h
# Staphylococcus aureus [19] = experiment: Antibacterial activity against methicillin-sensitive Staphylococcus aureus 15 after 18 hrs by CLSI broth microdilution method; format: functional; conditions: Staphylococcus aureus, 15, 18 h
# Staphylococcus aureus [20] = experiment: Antibacterial activity against methicillin-sensitive Staphylococcus aureus 12-28 after 18 hrs by CLSI broth microdilution method; format: functional; conditions: 12-28, 18 h
# Enterococcus faecalis [21] = experiment: Antibacterial activity against vancomycin-resistant Enterococcus faecalis ATCC 51299 after 18 hrs by CLSI broth microdilution method; format: functional; conditions: ATCC 51299, 18 h
# Enterococcus faecalis [22] = experiment: Antibacterial activity against vancomycin-sensitive Enterococcus faecalis 12-5 after 18 hrs by CLSI broth microdilution method; format: functional; conditions: 12-5, 18 h
# Enterococcus faecium [23] = experiment: Antibacterial activity against vancomycin-resistant Enterococcus faecium 12-1 after 18 hrs by CLSI broth microdilution method; format: functional; conditions: 12-1, 18 h
# Escherichia coli [24] = experiment: Antibacterial activity against extended-spectrum beta-lactamase deficient Escherichia coli 1515 after 18 hrs by CLSI broth microdilution method; format: functional; conditions: Escherichia coli, 1515, 18 h
# Escherichia coli [25] = experiment: Antibacterial activity against extended-spectrum beta-lactamase deficient Escherichia coli 12-14 after 18 hrs by CLSI broth microdilution method; format: functional; conditions: 12-14, 18 h
# Klebsiella pneumoniae [26] = experiment: Antibacterial activity against extended-spectrum beta-lactamase deficient Klebsiella pneumoniae 7 after 18 hrs by CLSI broth microdilution method; format: functional; conditions: Klebsiella pneumoniae, 7, 18 h
# Klebsiella pneumoniae [27] = experiment: Antibacterial activity against extended-spectrum beta-lactamase deficient Klebsiella pneumoniae 12-4 after 18 hrs by CLSI broth microdilution method; format: functional; conditions: 12-4, 18 h
# Pseudomonas aeruginosa [28] = experiment: Antibacterial activity against Pseudomonas aeruginosa PAO1 after 18 hrs by CLSI broth microdilution method; format: functional; conditions: PAO1, 18 h
# Pseudomonas aeruginosa [29] = experiment: Antibacterial activity against Pseudomonas aeruginosa 12-16 after 18 hrs by CLSI broth microdilution method; format: functional; conditions: 12-16, 18 h
# Klebsiella aerogenes = experiment: Antibacterial activity against Enterobacter aerogenes ATCC 13048 after 18 hrs by CLSI broth microdilution method; format: functional; conditions: ATCC 13048, 18 h
# Serratia marcescens = experiment: Antibacterial activity against Serratia marcescens ATCC 21074 after 18 hrs by CLSI broth microdilution method; format: functional; conditions: ATCC 21074, 18 h
# Providencia rettgeri = experiment: Antibacterial activity against Providencia rettgeri ATCC 31052 after 18 hrs by CLSI broth microdilution method; format: functional; conditions: ATCC 31052, 18 h
# Proteus vulgaris = experiment: Antibacterial activity against Proteus vulgaris ATCC 29905 after 18 hrs by CLSI broth microdilution method; format: functional; conditions: ATCC 29905, 18 h
# [30] = test system: Stenotrophomonas maltophilia; experiment: Antibacterial activity against Stenotrophomonas maltophilia ATCC 13636 after 18 hrs by CLSI broth microdilution method; format: functional; conditions: ATCC 13636, 18 h
# Citrobacter freundii = experiment: Antibacterial activity against Citrobacter freundii ATCC 43864 after 18 hrs by CLSI broth microdilution method; format: functional; conditions: ATCC 43864, 18 h
SMILES,MIC [1] [µg/mL],MIC [2] [µg/mL],MIC (Staphylococcus aureus [3]) [µg/mL],MIC (Staphylococcus aureus [4]) [µg/mL],MIC (Enterococcus faecalis [5]) [µg/mL],MIC (Enterococcus faecalis [6]) [µg/mL],MIC (Enterococcus faecium [7]) [µg/mL],MIC (Enterococcus faecium [8]) [µg/mL],MIC (Escherichia coli [9]) [µg/mL],MIC (Escherichia coli [10]) [µg/mL],MIC (Klebsiella pneumoniae [11]) [µg/mL],MIC (Klebsiella pneumoniae [12]) [µg/mL],MIC (Klebsiella pneumoniae [13]) [µg/mL],MIC (Pseudomonas aeruginosa [14]) [µg/mL],MIC [15] [µg/mL],MIC (Enterobacter cloacae) [µg/mL],MIC (Proteus mirabilis) [µg/mL],MIC [17] [µg/mL],MIC (Staphylococcus aureus [18]) [µg/mL],MIC (Staphylococcus aureus [19]) [µg/mL],other results
CCN(C)C(=N)c1ccc2cc(-c3ccc(-c4cc5ccc(C(=N)N(C)CC)cc5[nH]4)cc3)[nH]c2c1,0.25,0.5,0.5,1,1,2,1,1,1,2,8,4,4,8,4,2,8,0.25,0.5,0.5,CC50 at 48 h [16]: 17 µg/mL; MIC (Staphylococcus aureus [20]): 0.5 µg/mL; MIC (Enterococcus faecalis [21]): 2 µg/mL; MIC (Enterococcus faecalis [22]): 2 µg/mL; MIC (Enterococcus faecium [23]): 0.5 µg/mL; MIC (Escherichia coli [24]): 2 µg/mL; MIC (Escherichia coli [25]): 2 µg/mL; MIC (Klebsiella pneumoniae [26]): 4 µg/mL; MIC (Klebsiella pneumoniae [27]): 4 µg/mL; MIC (Pseudomonas aeruginosa [28]): 128 µg/mL; MIC (Pseudomonas aeruginosa [29]): 128 µg/mL; MIC (Klebsiella aerogenes): 2 µg/mL; MIC (Serratia marcescens): 16 µg/mL; MIC (Providencia rettgeri): 4 µg/mL; MIC (Proteus vulgaris): 4 µg/mL; MIC [30]: 8 µg/mL; MIC (Citrobacter freundii): 2 µg/mL
CN(C)C(=N)c1ccc2cc(-c3ccc4ccc(-c5cc6ccc(C(=N)N(C)C)cc6[nH]5)cc4c3)[nH]c2c1,4,4,4,8,128,128,128,32,> 128,> 128,> 128,> 128,> 128,> 128,> 128,> 128,> 128,64,4,4,CC50 at 48 h [16]: 13.6 µg/mL; MIC (Staphylococcus aureus [20]): 4 µg/mL; MIC (Enterococcus faecalis [21]): 128 µg/mL; MIC (Enterococcus faecalis [22]): 128 µg/mL; MIC (Enterococcus faecium [23]): 16 µg/mL; MIC (Escherichia coli [24]): > 128 µg/mL; MIC (Escherichia coli [25]): > 128 µg/mL; MIC (Klebsiella pneumoniae [26]): > 128 µg/mL; MIC (Klebsiella pneumoniae [27]): > 128 µg/mL; MIC (Pseudomonas aeruginosa [28]): > 128 µg/mL; MIC (Pseudomonas aeruginosa [29]): > 128 µg/mL; MIC (Klebsiella aerogenes): > 128 µg/mL; MIC (Serratia marcescens): > 128 µg/mL; MIC (Providencia rettgeri): > 128 µg/mL; MIC (Proteus vulgaris): > 128 µg/mL; MIC [30]: > 128 µg/mL; MIC (Citrobacter freundii): > 128 µg/mL
CN(C)C(=N)c1ccc2cc(-c3ccc(Oc4ccc(-c5cc6ccc(C(=N)N(C)C)cc6[nH]5)cc4)cc3)[nH]c2c1,0.125,0.25,0.25,0.25,0.5,2,2,2,4,8,8,8,8,128,> 128,64,32,0.25,0.25,0.25,MIC (Staphylococcus aureus [20]): 0.25 µg/mL; MIC (Enterococcus faecalis [21]): 1 µg/mL; MIC (Enterococcus faecalis [22]): 2 µg/mL; MIC (Enterococcus faecium [23]): 2 µg/mL; MIC (Escherichia coli [24]): 4 µg/mL; MIC (Escherichia coli [25]): 8 µg/mL; MIC (Klebsiella pneumoniae [26]): 8 µg/mL; MIC (Klebsiella pneumoniae [27]): 8 µg/mL; MIC (Pseudomonas aeruginosa [28]): > 128 µg/mL; MIC (Pseudomonas aeruginosa [29]): > 128 µg/mL; MIC (Klebsiella aerogenes): 8 µg/mL; MIC (Serratia marcescens): 32 µg/mL; MIC (Providencia rettgeri): 8 µg/mL; MIC (Proteus vulgaris): 8 µg/mL; MIC [30]: 16 µg/mL; MIC (Citrobacter freundii): 8 µg/mL
